The values that follow come from patent US20140113314A1, “Two Pore Channels as a Therapeutic Target to Protect Against Myocardial Ischemia and as an Adjuvant in Cardiac Surgery” (priority 2006, published 2014).

“Also recorded” adds a separate entry of the source. Like-named read-outs stand apart in the source and are kept apart here.

Assay [1] deals with NaCN induced current from isolated guinea pig ventricular myocytes. Kind of assay: NaCN induced outward current, whole-cell patch clamp in single ventricular myocytes. The class given is cell-based. Particulars: for peak current densities induced by NaCN in the presence of blocker / ratio of peak current density induced by NaCN in the presence of blocker to that on exposure to NaCN alone: blocker 200 μM; for sensitivity of NaCN induced current in the presence of altered internal pH: quinidine 0.5 mM (pHin 6.0), Zn^2+ 5 mM (pHin 9.0). In general terms: Patch clamp records ionic current or voltage across a cell membrane.

The test system is the same in assay [2]. Particulars: Ba^2+ 5 mM, extracellular, previously demonstrated; cited from earlier work.
Assay [3] concerns IKATP. The experiment in a line: IKATP activated by pinacidil together with low intracellular ATP, patch clamp in myocytes. In kind it is cell-based, guinea pig. Particulars: for effect on IKATP: IKATP activated by pinacidil 100 μM with intracellular ATP 0.1 mM, Zn^2+ 3 mM.
Description: All the cells were held at 0 mV.
Single Guinea pig heart cell preparation. Single cardiac myocytes were enzymatically isolated from adult male guinea pig hearts as described in (Gao et al 1992, J Physiol 449:689-704). Guinea pigs, weighing 300 to 500 g, were sacrificed by peritoneal injection with sodium pentobarbital solution (1 ml of 390 mg/ml) in accordance with an approved protocol approved by the IACUC committee at SUNY-Stony Brook. The heart was isolated and placed in Ca^2+ free Tyrode solution and the aorta was cannulated. The heart was then perfused with 50 ml of Ca2+ free Tyrode solution followed by 100 ml of Tyrode solution containing 30 mol/L CaCl2 and 0.4 mg/ml collagenase at 37° C. The heart was then placed in Ca^2+ free Tyrode solution at room temperature for 2 hours. Afterward, a piece of the ventricle was dissected and teased into smaller pieces in Kraft-Brühe (KB) solution (Isenberg et al., 1982 Pflugers Arch 395:6-18) containing (in mM): KCl 83; K2HPO4 30; MgSO4 5; Na-Pyruvic Acid 5; β-OH-Butyric Acid 5; Creatine 5; Taurine 20; Glucose 10; EGTA 0.5; KOH 2; Na2-ATP 5; pH was adjusted to 7.2 by KOH. The dissociated cells were then kept in KB solution at room temperature for at least 1 hour before the experiment. All solutions were bubbled with 100% O2. The isolated cells were stored in KB solution. An Axopatch 1D amplifier (Axon Instruments, Inc) and the patch clamp technique were employed to observe cell membrane current. Patch-pipette resistances were 2 to 3 MΩ before sealing. The pipette solution contained (in mM): K-Aspartic Acid 125; KCl 15; KOH 10; MgCl2 1; HEPES 10; EGTA 11; Mg-ATP 1; pH was adjusted to 7.2 by KOH. The external Tyrode solution contained (in mM): NaCl 137.7; NaOH 2.3; KCl 4; MgCl2 1; HEPES 5; CaCl2 1; CdCl2 1; Glucose 10; pH was adjusted to 7.4 by NaOH. Under these conditions, the L-type Ca^2+ current, the Na^+/Ca^2+ exchange current and the Na^+/K^+ pump current will be absent. […] All experiments were carried out at room temperature (22±1° C.). […] All patch clamp data were digitized by the data acquisition program pClamp8 (Axon Instruments, Inc) for later analysis. Cell capacitance was obtained for each cell and currents were normalized to cell capacitances.
The test system of assay [4] is temperature jump (TJ) induced current in guinea pig myocytes. Kind of assay: Temperature jump (TJ) induced current in myocytes. The class given is cell-based. The text has this: FIG. 15. The characterization of temperature jump (TJ) induced current in guinea pig myocytes. A. Sample trace of TJ induced outward current. Note the current can decay on its own. B. The TJ induced current (upper panel) and its I/V relationships (lower panel). Cells were held at […] and were subject to depolarizing voltage ramps from […] to +50 mV (250 ms duration) with a frequency of 0.1 Hz. Since the current measured at the peak c is out of the current amplitude range of the amplifier, another point near the peak (b) was chosen to construct the I/V curves of the current. C, D, E, and F. Biophysical properties of TREK-1 a heat-activated K2P channel. […] I. Summary of the inhibitory effects of Zn^2+ and quinidine on the TJ induced current (unpaired p<0.01, t-test).

Assay [5] has as its system myocytes. The experiment in a line: Myocyte shrinkage associated with the NaCN induced current. The class given is cell-based, guinea pig. Particulars: quinidine 0.5 mM, Zn2+ 3 mM.

As for `Nc1ccncc1` [4AP, 4-Aminopyridine], in assay [1] (4AP 4 mM, n=6), the “peak current densities of NaCN induced current with blocker” value was found to be 24.1±5.2 pA/pF. Besides, the “effect on NaCN induced current” value in assay [1] (agent 4 mM) is recorded as “not reduced”.
Turning to `CCCCCC(O)CCCC(=O)O` (centres unmarked) [5-HD, 5-hydroxydecanoic acid], the “effect on NaCN induced current” value in assay [1] (agent 200 μM) is “does not inhibit the NaCN induced current; also recorded: does not result in a reduced current amplitude”. In assay [1], the “peak current densities induced by NaCN in the presence of blocker” value worked out at 24.7±2.6 pA/pF and the “ratio of peak current density induced by NaCN in the presence of blocker to that on exposure to NaCN alone” value turned out to be 1.3±0.1.
On to `[Ba+2].[Cl-].[Cl-]` [Ba^2+, BaCl2], for which the “effect on NaCN induced current” value is recorded as “can prevent the appearance of the NaCN induced current” in assay [1] (Ba^2+ 20 mM); “abolished” in assay [1] (Ba^2+ 20 mM, listed as Ba2+); “Partial inhibition” in assay [1] (Ba^2+ 5-10 mM); “almost complete elimination” in assay [1] (Ba^2+ 20-40 mM); “neither Ba^2+ (1 mM, upper panel) nor Cs^+ (3 mM, lower panel) can prevent the appearance of the NaCN induced current” in assay [1] (agent 1 mM); “partially blocked” in assay [2].
Regarding `[Cl-].[Cs+]` [Cs^+, CsCl], the “peak current densities of NaCN induced current with blocker” value in assay [1] (Cs^+ 3 mM, n=5) is 19.1±2.4 pA/pF. For the same molecule, the “effect on NaCN induced current” value in assay [1] (agent 3 mM, listed as Cs+) is given as “insensitive”; in assay [1] (agent 3 mM, listed as CsCl), “not affected”.
For `COC(=O)[C@@H](N)CCCNC(=N)N[N+](=O)[O-]` [L-NAME], the “effect on NaCN induced current” value in assay [1] (agent 200 μM) is “reduced; also recorded: reduces the current”.
As to `N=C(N)NCCC[C@H](N)C(=O)O` [L-arginine], in assay [1], the “effect on NaCN induced current” value is reported as “can additionally activate an outward current; also recorded: increases the NaCN induced current”.
In the case of `[Cl-].[Cl-].[Zn+2]` [Zn^2+, ZnCl2], in assay [3], the “effect on IKATP” value is recorded as “cannot be blocked; also recorded: unaffected”. In addition, the “effect on NaCN induced current” value is “completely abolish” in assay [1] (Zn^2+ 5 mM); “reversibly abolished; also recorded: can prevent the appearance of the current induced by NaCN” in assay [1] (agent 3 mM); “completely blocked; also recorded: abolished” in assay [1] (agent 3 mM, listed as ZnCl2). The “sensitivity of NaCN induced current in the presence of altered internal pH” value in assay [1] is on record as “remains sensitive”. For the same molecule, the “effect on TJ induced current” value in assay [4] was “can prevent the appearance of TJ induced current”. In addition, the “effect on NaCN induced current and cell shrinkage” value in assay [5] is “prevent the appearance of the NaCN induced current and cell shrinkage”.
In the case of `COc1ccc(Cl)cc1C(=O)NCCc1ccc(S(=O)(=O)NC(=O)NC2CCCCC2)cc1` [glibenclamide], in assay [3], the “effect on IKATP” value is recorded as “abolished”. For the same molecule, the “effect on NaCN induced current” value in assay [1] (agent 200 μM) is “does not prevent the appearance of the NaCN induced current; also recorded: could not be abolished”. In assay [1], the “peak current densities induced by NaCN in the presence of blocker” value worked out at 23.0±2.1 pA/pF and the “ratio of peak current density induced by NaCN in the presence of blocker to that on exposure to NaCN alone” value was 1.2±0.1.
`CCCCC/C=C\C/C=C\C/C=C\C/C=C\CCCC(=O)N[C@H](C)CO` [methanandamide]: the “effect on NaCN induced current” value in assay [1] (methanandamide 20 μM) is recorded as “does not block the current induced by NaCN”; in assay [1] (methanandamide 20 μM to 100 μM), “does not prevent the appearance of the NaCN induced current”; in assay [1] (methanandamide 40 and 100 μM), “significant increase”; in assay [1] (methanandamide 40 and 100 μM, listed as Methanandamide), “significantly increased”.
Regarding `CC(N/C(=N\C#N)Nc1ccncc1)C(C)(C)C` (centres unmarked) [pinacidil], the “activation of IKATP” value in assay [3] (pinacidil 100 μM together with low intracellular ATP 0.1 mM) is recorded as “activated”.
Regarding `C=C[C@H]1C[N@@]2CC[C@H]1C[C@@H]2[C@@H](O)c1ccnc2ccc(OC)cc12` [quinidine], the “effect on IKATP” value in assay [3] was “unaffected”. For the same molecule, the “effect on NaCN induced current” value in assay [1] (agent 1 mM) is “can prevent the appearance of the current induced by NaCN”; in assay [1] (quinidine 0.5 mM), “completely abolished; also recorded: can both block the peak current induced by NaCN and prevent its occurrence”. In assay [1], the “sensitivity of NaCN induced current in the presence of altered internal pH” value is listed as “remains sensitive”. Moreover, the “effect on TJ induced current” value in assay [4] is “partially blocked”. Moreover, the “effect on NaCN induced current and cell shrinkage” value in assay [5] was “prevent the appearance of the NaCN induced current and cell shrinkage”.
